Source: patent EP1338280A1, “COMBINATION OF AMINES AND VANADIUM (IV)/(V) COMPOUNDS FOR THE TREATMENT AND/OR PREVENTION OF DIABETES MELLITUS” (priority 2000, dated 2002)

What was measured:
isolated rat adipocytes = assay: Hexose transport ([3H]-2-deoxyglucose uptake) in isolated rat adipocytes; assay type: cell-based; parameters: 2-deoxyglucose uptake (stimulatory effect): dose or concentration left out as unconfirmed; settings: for glucose transport: 45 min preincubation of fat cells with increasing concentrations, 5-min 2-DG uptake; for 2-deoxyglucose uptake (stimulatory effect): benzylamine or orthovanadate alone, 45 min incubation, ten-minute uptake
Description: Adipocyte isolation. Male Wistar rats (200-260 g) were sacrificed in a fed state, and the internal epididymal adipose tissues was dissected out and digested in Krebs-Ringer buffer as described (cf. C. Carpene et al., Biochem. PharmacoL 1990, voL 40, pp. 437-445). Adipose cells isolated is such a way were used in subsequent studies.
Hexose transport After a preincubation period of 45 min at 37 °C in vials containing 400 µl of cell suspension in KRBH with the tested products, [^3H]-2-deoxyglucose was added at a final concentration of 0.1 mM (approx. 1,300,000 d.p.m./vial). The assays were further incubated for 5 or 10 min and then stopped with 100 µl of cytochalasin B. Aliquots (200 µl) of the cell suspension were centrifuged in microtubes as described (cf. J.M. Olefsky, Biochem. J. 1978, voL 172, pp. 137-145). After centrifugation, the fat cells (upper part of the tubes) were placed in scintillation vials and the incorporated radioactivity was counted.

GLUT4 = GLUT4 translocation: Western blot of GLUT4 in plasma membrane and low density microsome fractions of rat adipocytes; assay type: cell-based; parameters: abundance of GLUT4 in plasma membranes: dose or concentration left out as unconfirmed; settings: for abundance of GLUT4 in plasma membranes: 45 minutes incubation, benzylamine or orthovanadate alone
Description: To verify whether the stimulation of glucose transport in rat adipocytes may be explained by a translocation of the insulin-sensitive glucose transporters from an internal site to the plasma membrane, as it is known for insulin, the amount of GLUT4 protein was determined in plasma membrane (PM) and low density microsome (LDM) fractions. […] These increases in GLUT4 content occurred without any significant change in the content of β1-integrin, a constitutive PM protein. Changes in the GLUT4 content of LDM mirrored, to a lesser extent, those reported in the PM (basal LDM content was decreased by 29 % and 12 % with insulin and tyramine plus orthovanadate respectively).
This study was carried out in order to determine whether the stimulation of glucose transport induced by the combination of benzylamine and orthovanadate was a consequence of alterations in the abundance of GLUT4 glucose carriers in the cell surface from adipose cells. Thus, isolated rat adipocytes were incubated in the absence or in the presence of insulin, benzylamine ([…]), orthovanadate ([…]) or the combination of benzylamine and orthovanadate, and 45 minutes later cells were homogenized and subjected to subcellular membrane fractionation. […] However, the incubation of cells with benzylamine and orthovanadate caused a 2.3-fold increase in the presence of GLUT4 in plasma membrane fractions. The effects of insulin or the combination benzylamine and orthovanadate on GLUT4 abundance in plasma membranes were specific and the plasma membrane marker β1-integrin remained unaltered after incubation with these agents. The recruitment of GLUT4 to the plasma membranes detected by insulin or the combination of benzylamine and orthovanadate was concomitant with a reduction of GLUT4 abundance in light microsomes. This was consistent with the view that benzylamine and orthovanadate translocate GLUT4 to the plasma membrane in isolated rat adipocytes.

[1] = system: streptozotocin-induced diabetic rats; assay: Chronic administration in streptozotocin-induced diabetic rats; assay type: in vivo; settings: for food and water consumption / weight of epididymal adipose tissue (adiposity): chronic treatment of diabetic rats
Description: (§1) Based on the finding of potent insulin-like effects of in vitro incubation of benzylamine and vanadate, the chronic administration of these compounds in diabetic rats was tested. To this end, streptozotocin-induced diabetic rats were implanted subcutaneously with osmotic minipumps releasing benzylamine (84 µmol/kg/day) or were sham-operated. […] A group of animals was also subjected to daily i.p. injection of vanadate (50 µmol/kg body wt) for two weeks.
In other studies, rats were daily injected intraperitoneally with 25 µmol/kg vanadate for the first week and with 50 µmol/kg for the second week. […] However, the combination of benzylamine and vanadate reduced hyperglycemia in diabetic rats during the second week of treatment (FIG. 7).
The chronic treatment with benzylamine and vanadate caused a substantial decrease in food and water consumption which returned to normal levels and an increase in the weight of epididymal adipose tissue. All these variations occurred in the absence of changes in body weight. The effects on adiposity or food and water intake were not detected when benzylamine or vanadate was administered alone. Furthermore the normalisation of glycemia caused by chronic treatment with both benzylamine and vanadate takes place in the absence of changes in plasma insulin concentrations.

[2] = assay type: physicochemical
Description: as §1

[3] = vanadate i.p. daily 25 µmol/kg first week and 50 µmol/kg second week, benzylamine 84 µmol/kg

For `OO` [hydrogen peroxide], the glucose transport (isolated rat adipocytes) was “dose-dependently stimulated”, the activation at 1000 µM (isolated rat adipocytes; Rattus norvegicus, Adipocyte, 0.75 h, 1 mM H2O2, preincubation 45 min, n = 23, read-out: effect relative to the maximal insulin effect) was 46% and the fold induction at 1000 µM (isolated rat adipocytes; Rattus norvegicus, Adipocyte, 0.75 h, 1 mM H2O2, preincubation 45 min, n = 23, read-out: factor by which basal transport is multiplied) was 5 ± 0.8.
For `CNC[C@H](O)c1cccc(O)c1` [phenylephrine], the glucose transport (isolated rat adipocytes) was “not activated”.
With `NCc1ccccc1` [benzylamine] the “2-deoxyglucose uptake (stimulatory effect)” value (isolated rat adipocytes) was “no stimulatory effect”, the “abundance of GLUT4 in plasma membranes” value (GLUT4) was “did not alter” and the “food and water consumption” value [1] was “not detected”. For the same compound, the “weight of epididymal adipose tissue (adiposity)” value [1] was “not detected”, the glycemia [1, 3] was “remained hyperglycemic” and the “stability in implanted osmotic minipumps” value [2] was “stable for two weeks”.
With `[Na+].[Na+].[Na+].[O]=[V]([O-])([O-])[O-]` [orthovanadate, sodium orthovanadate Na3VO4] the “stimulation of glucose transport relative to that of 100 nM insulin (maximal insulin effect)” value (isolated rat adipocytes; 1 mM tyramine, 0.1 mM orthovanadate, n = 40) was 5 ± 1%, the “2-deoxyglucose uptake (stimulatory effect)” value (isolated rat adipocytes) was “did not stimulate” and the “basal or insulin-stimulated glucose transport” value (isolated rat adipocytes; orthovanadate alone 0.1 mM) was “did not affect”. For the same compound, the “abundance of GLUT4 in plasma membranes” value (GLUT4) was “did not alter”, the “amount of GLUT4 protein in the PM” value (GLUT4; Western blot, orthovanadate 0.1 mM, n = 3) was 103 ± 8% and the “food and water consumption” value [1] was “not detected”. The “weight of epididymal adipose tissue (adiposity)” value [1] was “not detected”, the glycemia ([1]; vanadate 50 µmol/kg body wt daily i.p. for two weeks, benzylamine 84 µmol/kg/day by osmotic minipumps) was “moderate reduction” and the glycemia [1, 3] was “remained hyperglycemic”.
With `NCCc1ccc(O)cc1` [tyramine] the glucose transport (isolated rat adipocytes) was “not activated”, the “synergism with low, ineffective dose of hydrogen peroxide on glucose transport” value (isolated rat adipocytes; hydrogen peroxide 0.01 mM, not shown) was “no synergism” and the “synergism with low, ineffective dose of insulin on glucose transport” value (isolated rat adipocytes; insulin 10 pM, not shown) was “no synergism”.
For `NCCc1c[nH]c2ccc(O)cc12` [serotonin], the glucose transport (isolated rat adipocytes) was “not activated”.
With `NNC(N)=O` [semicarbazide] the inhibition at 100 µM (isolated rat adipocytes; Rattus norvegicus, Adipocyte, semicarbazide 0.1 mM, read-out: inhibition of the glucose transport promoted by 1 mM tyramine plus orthovanadate) was 59 ± 7%, the “benzylamine-orthovanadate-stimulated 2-deoxyglucose uptake” value (isolated rat adipocytes; semicarbazide 1 mM) was “abolished” and the “glucose transport stimulated by 1 mM hydrogen peroxide plus 0.1 mM orthovanadate” value (isolated rat adipocytes; semicarbazide 1 mM) was “unaffected”.
